The results in this text go back to paper PMC10879502, “Linking ATP and allosteric sites to achieve superadditive binding with bivalent EGFR kinase inhibitors” (Communications Chemistry, 2024).

The target in assay [1] is T1, EGFR WT, cytoplasmic domain (669–1210) (Homo sapiens, UniProt P00533).
T1 construct: EGFR WT, cytoplasmic domain (669–1210), GST-tagged, Carna; purchased Carna 08-115
The assay can be described thus: Time-dependent kinase inhibition assay (Sox-based substrate). Type of assay: biochemical. As to conditions: enzyme 2.0 nM, 1 mM ATP. How it is done:
(§1) Biochemical assays were performed with commercially available EGFR WT, cytoplasmic domain (669–1210), GST-tagged, Carna (Cat#/Lot#: 08-115/21CBS-0127H), EGFR [L858R], cytoplasmic domain (668-end), GST-tagged, SignalChem (Cat#/Lot#: E10-122BG/D2411-4), EGFR [T790M/L858R] cytoplasmic domain (669–1210), GST-tagged, Carna (Cat#/Lot#: 08-510/12CBS-0765M). […] BSA was not included in this experiment to prevent interference with irreversible inhibitor characterization via off-target binding. All reactions were run for 240 min at 30 °C. Time-dependent fluorescence from the Sox-based substrate was monitored in PerkinElmer ProxiPlate-384 Plus, white shallow well microplates (Cat. #6008280) Biotek Synergy Neo 2 microplate reader with excitation (360 nm) and emission (485 nm) wavelengths. 4 was dosed between 0 and 10 µM in 24-point curves with 1.5-fold dilutions. Fluorescence, determined with identical reactions but lacking purified enzyme or crude cell lysate was subtracted from the total fluorescence signal for each time point, with both determined in duplicate, to obtain corrected relative fluorescence units (RFU). Corrected RFU values then were plotted vs. time and the reaction velocity for the first ~40 min (initial reaction rates) was determined from the slope using GraphPad Prism (La Jolla, CA) with units of RFU/min.

The target of assay [2] is T2, EGFR [L858R], cytoplasmic domain (668-end) (Homo sapiens, UniProt P00533, L858R).
T2 construct: EGFR [L858R], cytoplasmic domain (668-end), GST-tagged, SignalChem; purchased SignalChem E10-122BG
T2 sequence (P00533 669-1210 L858R limits assumed): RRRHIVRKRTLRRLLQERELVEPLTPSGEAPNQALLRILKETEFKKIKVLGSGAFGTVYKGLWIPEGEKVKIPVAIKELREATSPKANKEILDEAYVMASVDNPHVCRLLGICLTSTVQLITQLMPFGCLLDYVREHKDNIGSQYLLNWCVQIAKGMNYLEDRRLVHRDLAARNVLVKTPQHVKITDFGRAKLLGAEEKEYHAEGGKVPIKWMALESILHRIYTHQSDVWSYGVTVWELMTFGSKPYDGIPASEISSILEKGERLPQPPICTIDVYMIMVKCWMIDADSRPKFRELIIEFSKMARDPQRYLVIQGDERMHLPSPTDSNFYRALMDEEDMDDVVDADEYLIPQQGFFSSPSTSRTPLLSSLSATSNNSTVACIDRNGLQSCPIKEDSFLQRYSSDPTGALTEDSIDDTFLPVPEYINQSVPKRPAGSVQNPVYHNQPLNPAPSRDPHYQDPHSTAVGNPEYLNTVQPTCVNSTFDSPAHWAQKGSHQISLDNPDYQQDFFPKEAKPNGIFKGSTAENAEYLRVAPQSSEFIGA
The assay is described as above. Type of assay: biochemical. To be noted: LR, enzyme 1.0 nM, 1 mM ATP. How it is done: as §1

In assay [3] the target is T3, EGFR [T790M/L858R] cytoplasmic domain (669–1210) (Homo sapiens, UniProt P00533, L858R/T790M).
T3 construct: EGFR [T790M/L858R] cytoplasmic domain (669–1210), GST-tagged, Carna; purchased Carna 08-510
T3 sequence (P00533 669-1210 T790M/L858R): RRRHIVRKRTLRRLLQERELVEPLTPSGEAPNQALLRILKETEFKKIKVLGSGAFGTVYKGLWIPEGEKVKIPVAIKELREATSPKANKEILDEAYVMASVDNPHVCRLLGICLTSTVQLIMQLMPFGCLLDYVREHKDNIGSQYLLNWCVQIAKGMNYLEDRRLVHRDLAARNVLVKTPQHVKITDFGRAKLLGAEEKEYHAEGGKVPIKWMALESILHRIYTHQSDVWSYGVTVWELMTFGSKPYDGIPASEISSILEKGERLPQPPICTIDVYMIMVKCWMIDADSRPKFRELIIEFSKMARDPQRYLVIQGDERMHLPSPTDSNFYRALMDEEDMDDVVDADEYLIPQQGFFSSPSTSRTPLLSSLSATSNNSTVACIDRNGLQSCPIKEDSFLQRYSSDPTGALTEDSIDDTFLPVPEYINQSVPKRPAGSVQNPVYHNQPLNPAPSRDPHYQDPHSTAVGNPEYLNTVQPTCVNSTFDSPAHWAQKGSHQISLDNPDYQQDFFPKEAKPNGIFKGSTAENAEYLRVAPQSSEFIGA
The assay is described as above. To be noted: LRTM, enzyme 2.0 nM, 1 mM ATP. Type of assay: biochemical. As for the experimental part:
as §1

In assay [4] the target is BLK (Homo sapiens, UniProt P51451). The assay can be described thus: KINOMEscan. Type of assay: binding. As to conditions: 1 μM.
For assay [5], the target named is CSF1R (Homo sapiens, UniProt P07333). The assay can be described thus: KINOMEscan. As to conditions: 1 μM. Type of assay: binding.
CSF1R, sequence (P07333 20-972): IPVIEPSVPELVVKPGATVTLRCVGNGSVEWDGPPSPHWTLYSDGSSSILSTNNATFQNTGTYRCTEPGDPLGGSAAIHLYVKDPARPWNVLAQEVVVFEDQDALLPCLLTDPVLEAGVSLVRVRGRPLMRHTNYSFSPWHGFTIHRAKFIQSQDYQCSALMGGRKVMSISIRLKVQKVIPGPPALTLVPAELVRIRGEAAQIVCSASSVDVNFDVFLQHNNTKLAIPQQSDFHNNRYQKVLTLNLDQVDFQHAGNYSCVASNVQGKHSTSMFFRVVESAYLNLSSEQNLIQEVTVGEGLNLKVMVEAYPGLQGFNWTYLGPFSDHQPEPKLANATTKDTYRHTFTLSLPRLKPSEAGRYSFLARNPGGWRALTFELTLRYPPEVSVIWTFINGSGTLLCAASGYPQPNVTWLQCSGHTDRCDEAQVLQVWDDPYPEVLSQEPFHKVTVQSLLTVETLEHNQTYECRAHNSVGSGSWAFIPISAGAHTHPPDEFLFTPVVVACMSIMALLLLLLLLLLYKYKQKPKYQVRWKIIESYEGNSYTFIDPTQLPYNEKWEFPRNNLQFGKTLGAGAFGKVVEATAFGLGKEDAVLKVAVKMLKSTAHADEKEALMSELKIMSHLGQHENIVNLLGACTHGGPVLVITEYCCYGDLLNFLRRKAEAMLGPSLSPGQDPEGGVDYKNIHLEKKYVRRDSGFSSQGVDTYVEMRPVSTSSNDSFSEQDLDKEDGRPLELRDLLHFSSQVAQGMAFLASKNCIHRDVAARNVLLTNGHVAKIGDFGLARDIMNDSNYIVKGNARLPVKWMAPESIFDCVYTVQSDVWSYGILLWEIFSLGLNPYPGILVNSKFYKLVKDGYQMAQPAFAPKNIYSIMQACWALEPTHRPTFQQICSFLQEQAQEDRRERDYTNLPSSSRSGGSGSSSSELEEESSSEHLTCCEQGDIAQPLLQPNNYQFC
Assay [6] has as its target EPHB4 (Homo sapiens, UniProt P54760). The assay can be described thus: KINOMEscan. Format: binding. As to conditions: 1 μM.
For assay [7], the target named is T4, IKK-epsilon (Homo sapiens, UniProt Q14164).
T4 construct: purchased Eurofins DiscoverX (KINOMEscan)
The assay can be described thus: KINOMEscan. Type of assay: binding. As to conditions: 1 μM.

The target in assay [8] is T5, MAP4K3 (Homo sapiens, UniProt Q8IVH8).
T5 construct: purchased Eurofins DiscoverX Corporation
T5 sequence (Q8IVH8 whole entry): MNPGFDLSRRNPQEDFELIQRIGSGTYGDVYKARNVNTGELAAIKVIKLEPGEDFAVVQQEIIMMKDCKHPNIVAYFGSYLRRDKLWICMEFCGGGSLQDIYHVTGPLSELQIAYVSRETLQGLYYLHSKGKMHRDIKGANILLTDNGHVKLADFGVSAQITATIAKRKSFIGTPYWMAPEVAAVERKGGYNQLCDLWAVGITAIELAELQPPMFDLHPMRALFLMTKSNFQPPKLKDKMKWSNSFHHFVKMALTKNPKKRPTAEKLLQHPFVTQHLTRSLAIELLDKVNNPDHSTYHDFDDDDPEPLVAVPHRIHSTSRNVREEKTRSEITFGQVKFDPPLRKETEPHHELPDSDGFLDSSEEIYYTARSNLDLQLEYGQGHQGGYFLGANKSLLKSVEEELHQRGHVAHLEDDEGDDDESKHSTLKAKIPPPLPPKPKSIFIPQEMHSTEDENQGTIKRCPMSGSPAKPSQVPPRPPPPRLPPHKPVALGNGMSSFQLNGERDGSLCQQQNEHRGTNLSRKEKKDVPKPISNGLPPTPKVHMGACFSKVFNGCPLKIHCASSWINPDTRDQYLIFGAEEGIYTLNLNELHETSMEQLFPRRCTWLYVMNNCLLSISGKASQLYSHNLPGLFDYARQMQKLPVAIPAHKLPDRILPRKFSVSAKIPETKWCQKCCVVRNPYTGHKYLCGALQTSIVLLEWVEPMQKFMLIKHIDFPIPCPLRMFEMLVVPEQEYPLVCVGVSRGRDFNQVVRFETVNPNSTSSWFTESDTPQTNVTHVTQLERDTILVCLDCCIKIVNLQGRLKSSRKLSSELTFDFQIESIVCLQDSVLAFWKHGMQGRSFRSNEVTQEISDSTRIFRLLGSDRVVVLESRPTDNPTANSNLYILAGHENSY
Description: KINOMEscan. Format: binding. As to conditions: 1 μM.

Assay [9] concerns the target SRPK3 (Homo sapiens, UniProt Q9UPE1). Description: KINOMEscan. Format: binding. As to conditions: 1 μM.
The target in assay [10] is T6, TEC (Homo sapiens, UniProt P42680).
T6 construct: purchased Eurofins DiscoverX Corporation
T6 sequence (P42680 whole entry): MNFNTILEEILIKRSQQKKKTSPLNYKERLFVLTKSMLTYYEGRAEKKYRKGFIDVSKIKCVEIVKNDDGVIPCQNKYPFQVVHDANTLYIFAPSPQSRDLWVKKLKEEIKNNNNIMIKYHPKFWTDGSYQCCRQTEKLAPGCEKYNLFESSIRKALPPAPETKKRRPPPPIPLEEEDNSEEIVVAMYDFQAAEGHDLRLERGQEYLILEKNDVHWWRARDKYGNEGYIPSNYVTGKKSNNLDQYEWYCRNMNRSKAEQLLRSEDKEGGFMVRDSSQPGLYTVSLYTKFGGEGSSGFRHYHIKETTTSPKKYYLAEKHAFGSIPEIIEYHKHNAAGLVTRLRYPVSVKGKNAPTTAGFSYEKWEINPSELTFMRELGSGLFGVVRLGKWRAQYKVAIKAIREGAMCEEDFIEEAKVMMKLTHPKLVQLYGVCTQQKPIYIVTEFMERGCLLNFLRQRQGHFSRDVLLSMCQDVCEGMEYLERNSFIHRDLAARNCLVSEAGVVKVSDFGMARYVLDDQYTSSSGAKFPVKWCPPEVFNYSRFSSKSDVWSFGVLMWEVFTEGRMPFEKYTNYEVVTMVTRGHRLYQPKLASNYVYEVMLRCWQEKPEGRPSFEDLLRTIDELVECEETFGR
The assay can be described thus: KINOMEscan. Type of assay: binding. To be noted: 1 μM.

T1 sequence (P00533 669-1210): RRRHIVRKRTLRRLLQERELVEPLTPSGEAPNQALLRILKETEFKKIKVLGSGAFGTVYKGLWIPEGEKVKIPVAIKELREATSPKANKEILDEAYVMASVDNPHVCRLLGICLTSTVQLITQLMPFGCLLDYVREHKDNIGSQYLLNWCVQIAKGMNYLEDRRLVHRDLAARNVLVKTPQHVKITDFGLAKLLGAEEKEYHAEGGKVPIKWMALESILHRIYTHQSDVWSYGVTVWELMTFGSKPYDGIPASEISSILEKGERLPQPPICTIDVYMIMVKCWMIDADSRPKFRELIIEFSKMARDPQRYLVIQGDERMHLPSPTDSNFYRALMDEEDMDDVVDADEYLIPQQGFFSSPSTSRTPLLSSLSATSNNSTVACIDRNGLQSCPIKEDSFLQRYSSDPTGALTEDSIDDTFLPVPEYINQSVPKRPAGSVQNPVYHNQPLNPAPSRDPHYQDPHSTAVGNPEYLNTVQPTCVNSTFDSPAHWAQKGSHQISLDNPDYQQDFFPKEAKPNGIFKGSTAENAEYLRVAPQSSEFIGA
EPHB4, sequence (P54760 16-987): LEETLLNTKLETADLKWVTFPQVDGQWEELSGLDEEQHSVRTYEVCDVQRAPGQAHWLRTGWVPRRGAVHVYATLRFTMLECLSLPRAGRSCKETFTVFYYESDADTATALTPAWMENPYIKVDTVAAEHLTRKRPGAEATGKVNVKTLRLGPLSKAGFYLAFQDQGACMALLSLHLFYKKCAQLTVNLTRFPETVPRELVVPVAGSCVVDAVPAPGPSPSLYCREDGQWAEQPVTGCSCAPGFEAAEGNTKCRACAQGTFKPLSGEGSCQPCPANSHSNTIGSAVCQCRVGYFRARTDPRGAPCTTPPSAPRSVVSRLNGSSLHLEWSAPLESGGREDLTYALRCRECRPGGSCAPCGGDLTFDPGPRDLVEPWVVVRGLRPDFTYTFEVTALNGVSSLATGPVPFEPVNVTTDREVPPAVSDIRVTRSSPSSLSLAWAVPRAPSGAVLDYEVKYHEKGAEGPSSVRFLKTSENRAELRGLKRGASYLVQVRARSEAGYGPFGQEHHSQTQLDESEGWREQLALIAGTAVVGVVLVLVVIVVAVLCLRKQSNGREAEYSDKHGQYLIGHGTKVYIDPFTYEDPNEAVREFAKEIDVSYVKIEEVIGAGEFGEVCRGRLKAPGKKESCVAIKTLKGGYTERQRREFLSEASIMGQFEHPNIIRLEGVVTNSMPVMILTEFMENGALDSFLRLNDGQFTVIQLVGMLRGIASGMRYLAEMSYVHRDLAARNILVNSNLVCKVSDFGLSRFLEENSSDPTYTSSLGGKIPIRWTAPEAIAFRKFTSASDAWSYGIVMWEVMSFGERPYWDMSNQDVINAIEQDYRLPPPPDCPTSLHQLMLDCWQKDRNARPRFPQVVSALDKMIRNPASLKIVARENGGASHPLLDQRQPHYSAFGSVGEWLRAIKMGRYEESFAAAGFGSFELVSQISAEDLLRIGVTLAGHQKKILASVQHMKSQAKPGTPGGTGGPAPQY

One may read the kinact as the maximal first-order rate at which the target is inactivated. The kinact/KI is the maximal inactivation rate divided by the concentration that gives half of it. Regarding `C=CC(=O)Nc1ccc(OC)c(Nc2cc(-c3[nH]c(CC)nc3-c3cccc(NC(=O)c4cccc5c4NC(=O)c4ccccc4N5)c3)ccn2)c1` [Compound 4], the Ki in [1] is 1200 ± 40 nM; in [2], 610 ± 30 nM; in assay [3], 1600 ± 100 nM. In addition, the results for the kinact in [1], in [2] and in [3] were 0.003 s⁻¹, 0.00867 s⁻¹ and 0.00167 s⁻¹, respectively. In addition, the kinact/KI stood at 2500 ± 30 M⁻¹ s⁻¹ in assay [1], 14100 ± 300 M⁻¹ s⁻¹ in assay [2] and 1070 ± 40 M⁻¹ s⁻¹ in assay [3]. Also, the POC in [4] is given as 1.7% of control; in [5], 100% of control; in assay [6] it was 100% of control; in assay [7], 100% of control; in assay [8], 9.5% of control; in assay [9], 100% of control. In addition, the POC in assay [10] was 45% of control.
